In ChEMBL document CHEMBL2163202, “Enhanced Ca2+ entry, ceramide formation, and apoptotic death of erythrocytes triggered by plumbagin” (J Nat Prod, 2012):
The source made the active and inactive calls. The calls are words filed in the database; no cut-off is given here.

Tests used:
[1] = test system: Erythrocyte; assay: Induction of eryptosis in human erythrocytes assessed as reduction in cell volume measuring forward scatter at 1.5 uM after 48 hrs by FACS analysis; format: functional, cell-based
[2] = test system: Erythrocyte; assay: Induction of eryptosis in human erythrocytes assessed as cell membrane scrambling at 1 uM after 48 hrs by annexin V staining-based FACS analysis in nominal absence of extracellular Ca2+; format: functional
[3] = test system: Erythrocyte; assay: Induction of eryptosis in human erythrocytes assessed as increase in cytosolic Ca2+ at 0.5 uM after 48 hrs by Fluo-3/AM-based FACS analysis; format: functional, cell-based
[4] = test system: Erythrocyte; assay: Induction of eryptosis in human erythrocytes assessed as reduction in cell volume measuring forward scatter up to 2 uM after 48 hrs by FACS analysis; format: functional, cell-based
[5] = test system: Erythrocyte; assay: Induction of eryptosis in human erythrocytes assessed as phosphatidylserine exposure at 1 uM after 48 hrs by annexin V staining-based FACS analysis; format: functional, cell-based
[6] = test system: Erythrocyte; assay: Induction of eryptosis in human erythrocytes assessed as cell membrane scrambling at 1 uM after 48 hrs by annexin V staining-based FACS analysis in presence of extracellular Ca2+; format: functional
[7] = test system: Erythrocyte; assay: Hemolysis in human erythrocytes assessed as release of hemoglobin up to 2 uM after 48 hrs by spectrophotometry; format: functional, cell-based
[8] = test system: Erythrocyte; assay: Induction of eryptosis in human erythrocytes assessed as increase in cytosolic Ca2+ up to 2 uM after 48 hrs by Fluo-3/AM-based FACS analysis; format: functional, cell-based
[9] = test system: Erythrocyte; assay: Induction of eryptosis in human erythrocytes assessed as phosphatidylserine exposure up to 2 uM after 48 hrs by annexin V staining-based FACS analysis; format: functional, cell-based
[10] = test system: Erythrocyte; assay: Stimulation of ceramide formation in human erythrocytes at 2 uM after 48 hrs by FITC-labeled anticeramide antibody method; format: functional, cell-based
[11] = test system: Erythrocyte; assay: Hemolysis in human erythrocytes assessed as release of hemoglobin at 1 uM after 48 hrs by spectrophotometry; format: functional, cell-based

`CC1=CC(=O)c2c(O)cccc2C1=O` was tested, and the Activity [1] was “Active”, the Activity [2] was “inactive” and the Activity [3] was “Active”. For the same compound, the Activity [4] was “Active”, the Activity [5] was “Active” and the Activity [6] was “Active”. For the same compound, the Activity [7] was “Active”, the Activity [8] was “Active” and the Activity [9] was “Active”. The Activity [10] was “Active” and the Activity [11] was “Active”.
